This note sets out measurements from patent publication US20180042234A1, “FUNGICIDAL PYRAZOLES” (E I DU PONT DE NEMOURS AND COMPANY, priority 2015, published 2018).

Marks after values point to notes of the source that are not given here.

The subject of data set [1] is Puccinia recondita f. sp. tritici. Kind of data set: Test A: wheat leaf rust, preventive spray on wheat seedlings, visual disease rating. The format is in vivo. The source says: (§1) General protocol for preparing test suspensions for Tests A-E: the test compounds were first dissolved in acetone in an amount equal to 3% of the final volume and then suspended at the desired concentration (in ppm) in acetone and purified water (50/50 mix by volume) containing 250 ppm of the surfactant Trem® 014 (polyhydric alcohol esters). The resulting test suspensions were then used in Tests A-E. Spraying a 200 ppm test suspension to the point of run-off on the test plants was the equivalent of a rate of 800 g/ha.
The test suspension was sprayed to the point of run-off on wheat seedlings. The following day the seedlings were inoculated with a spore suspension of Puccinia recondita f. sp. tritici (the causal agent of wheat leaf rust) and incubated in a saturated atmosphere at 20° C. for 24 h, and then moved to a growth chamber at 20° C. for 7 days, after which time visual disease ratings were made.
(§2) Results for Tests A-E are given in Table A. In the Table, a rating of 100 indicates 100% disease control and a rating of 0 indicates no disease control (relative to the controls). A dash (-) indicates no test results. All results are for 200 ppm except where followed by an asterisk “*” which indicates a 250 ppm test suspension was used or a double asterisk “**” which indicates a 50 ppm test suspension was used.

The subject of the next data set is Septoria tritici. As to the kind of experiment: Test B: wheat leaf blotch, preventive spray on wheat seedlings, visual disease rating. The format is in vivo.
From the text: as §1
The test suspension was sprayed to the point of run-off on wheat seedlings. The following day the seedlings were inoculated with a spore suspension of Septoria tritici (the causal agent of wheat leaf blotch) and incubated in a saturated atmosphere at 24° C. for 48 h, and then moved to a growth chamber at 20° C. for 19 days, after which time visual disease ratings were made.
as §2

Another data set concerns Botrytis cinerea. Kind of data set: Test C: tomato Botrytis, preventive spray on tomato seedlings, visual disease rating. The format is in vivo.
From the text: as §1
The test suspension was sprayed to the point of run-off on tomato seedlings. The following day the seedlings were inoculated with a spore suspension of Botrytis cinerea (the causal agent of tomato Botrytis) and incubated in a saturated atmosphere at 20° C. for 48 h, and then moved to a growth chamber at 24° C. for 3 days, after which time visual disease ratings were made.
as §2

The subject of data set [2] is Blumeria graminis f sp. tritici. Kind of data set: Test D: wheat powdery mildew, preventive spray on wheat seedlings, visual disease rating. The format is in vivo.
From the text: as §1
The test suspension was sprayed to the point of run-off on wheat seedlings. The following day the seedlings were inoculated with a spore dust of Blumeria graminis f sp. tritici, (also known as Erysiphe graminis f sp. tritici, the causal agent of wheat powdery mildew) and incubated in a growth chamber at 20° C. for 8 days, after which time visual disease ratings were made.
as §2

Another data set deals with Septoria nodorum. As to the kind of experiment: Test E: Septoria glume blotch, preventive spray on wheat seedlings, visual disease rating. It is filed as in vivo. The following applies: 200 ppm test suspension.
From the text: as §1
The test suspension was sprayed to the point of run-off on wheat seedlings. The following day the seedlings were inoculated with a spore suspension of Septoria nodorum (the causal agent of Septoria glume blotch) and incubated in a saturated atmosphere at 20° C. for 48 h, and then moved to a growth chamber at 20° C. for 9 days, after which time visual disease ratings were made.
as §2

Setting [3] is: 200 ppm test suspension, 100 = 100% disease control, 0 = no control.

Regarding `Cc1nn(C)c(C(O)c2ccc(F)cc2Cl)c1C1CCCCC1` (stereo not drawn) [Compound 11, α-(2-chloro-4-fluorophenyl)-4-cyclohexyl-1,3-dimethyl-1H-pyrazole-5-methanol], the melting point (as a rule, the temperature, or range, at which the solid turns liquid) is 171 to 173 °C. In addition, in data set [1] (250 ppm test suspension (*)), the “Test A disease control rating” value is listed as 86* %. Besides, the “Test B disease control rating” value in the data set on Septoria tritici (250 ppm test suspension (*)) is given as 100* %. Also, the “Test C disease control rating” value with Botrytis cinerea (250 ppm test suspension (*)) is 24* %. The “Test D disease control rating” value in data set [2] (250 ppm test suspension (*)) was 93* %.
Consider `CCC(=NO)c1c(C)nn(C)c1Oc1c(F)cccc1F` [Compound 47], for which the “Test A disease control rating” value in data set [1] (setting [3]) was determined as 0%. The “Test B disease control rating” value in the data set with Septoria tritici (200 ppm test suspension) is listed as 81%. For the same compound, the “Test C disease control rating” value in the data set on Botrytis cinerea (200 ppm test suspension) is recorded as 0%. The “Test D disease control rating” value in data set [2] (250 ppm test suspension (*)) is on record as 89* %. In addition, the “Test E disease control rating” value in the data set on Septoria nodorum amounted to 0%.
As to `CCC(=NOC(C)C)c1c(C)nn(C)c1Oc1c(F)cccc1F` [Compound 48], the “Test A disease control rating” value in data set [1] (setting [3]) is recorded as 0%. Further, the “Test B disease control rating” value with Septoria tritici (200 ppm test suspension) is listed as 32%. The “Test C disease control rating” value in the data set on Botrytis cinerea (200 ppm test suspension) is 18%. Moreover, the “Test D disease control rating” value in data set [2] (200 ppm test suspension) stood at 0%. For the same compound, in the data set with Septoria nodorum, the “Test E disease control rating” value is listed as 0%.
Turning to `CCC(=NOC)c1c(C)nn(C)c1Oc1c(F)cccc1F` [Compound 49], the “Test A disease control rating” value in data set [1] (setting [3]) is 0%. In addition, in the data set with Septoria tritici (200 ppm test suspension), the “Test B disease control rating” value amounted to 16%. In addition, in the data set with Botrytis cinerea (200 ppm test suspension), the “Test C disease control rating” value stood at 39%. In data set [2] (200 ppm test suspension), the “Test D disease control rating” value was found to be 0%. Besides, the “Test E disease control rating” value in the data set with Septoria nodorum is 0%.
Turning to `CCON=C(CC)c1c(C)nn(C)c1Oc1c(F)cccc1F` [Compound 50], the “Test A disease control rating” value in data set [1] (setting [3]) was determined as 0%. Also, the “Test B disease control rating” value in the data set on Septoria tritici (200 ppm test suspension) turned out to be 40%. In addition, the “Test C disease control rating” value with Botrytis cinerea (200 ppm test suspension) stood at 3%. Further, the “Test D disease control rating” value in data set [2] (200 ppm test suspension) stood at 0%. For the same compound, in the data set with Septoria nodorum, the “Test E disease control rating” value is listed as 0%.
For `CC=C(CC)c1c(C)nn(C)c1Oc1c(F)cccc1F` [Compound 51], in data set [1] (setting [3]), the “Test A disease control rating” value worked out at 0%. The “Test B disease control rating” value with Septoria tritici (200 ppm test suspension) worked out at 0%. The “Test C disease control rating” value in the data set with Botrytis cinerea (200 ppm test suspension) is 15%. The “Test D disease control rating” value in data set [2] (200 ppm test suspension) worked out at 0%. Further, the “Test E disease control rating” value in the data set on Septoria nodorum worked out at 0%.
On to `Cc1nn(C)c(Nc2c(F)cc(Cl)cc2F)c1C1CCCC1` [Compound 52, N-(4-chloro-2,6-difluorophenyl)-4-cyclopenyl-1,3-dimethyl-1H-pyrazol-5-amine], for which the “Test A disease control rating” value in data set [1] (setting [3]) was 89%. Besides, the “Test B disease control rating” value in the data set on Septoria tritici (200 ppm test suspension) was determined as 99%. Further, the “Test C disease control rating” value in the data set on Botrytis cinerea (200 ppm test suspension) is recorded as 96%. Also, in data set [2] (200 ppm test suspension), the “Test D disease control rating” value stood at 98%. In addition, the “Test E disease control rating” value in the data set on Septoria nodorum was 0%.
